Test results as given in ChEMBL document CHEMBL1201862, “PubChem BioAssay data set” (2004).
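Five compound concentrations were applied to cells in 96-well plates for 48 hours; endpoints were derived by simple linear interpolation of the resulting dose-response curve. GI50: concentration for 50% inhibition of growth.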 Active and inactive are the calls of the source. Cut-off read from the data, not from the text of the source: active = GI50 up to about 1.1 µM and inactive = higher.

Columns and labels:
Experiment in all cases: DTP human tumour cell line panel, 48 h
A549 = tested on: A549
DU-145 = tested on: DU-145
HCC 2998 = tested on: HCC 2998
HCT-116 = tested on: HCT-116
HOP-62 = tested on: HOP-62
KM12 = tested on: KM12
LOX IMVI = tested on: LOX IMVI
NCI-H23 = tested on: NCI-H23
NCI-H460 = tested on: NCI-H460
NCI-H522 = tested on: NCI-H522
OVCAR-3 = tested on: OVCAR-3
OVCAR-4 = tested on: OVCAR-4
PC-3 = tested on: PC-3
RPMI-8226 = tested on: RPMI-8226
SF-295 = tested on: SF-295
SF-539 = tested on: SF-539
SK-MEL-2 = tested on: SK-MEL-2
SK-OV-3 = tested on: SK-OV-3
SNB-19 = tested on: SNB-19
SR = tested on: SR

Row | SMILES | GI50 (A549) | GI50 (DU-145) | GI50 (HCC 2998) | GI50 (HCT-116) | GI50 (HOP-62) | GI50 (KM12) | GI50 (LOX IMVI) | GI50 (NCI-H23) | GI50 (NCI-H460) | GI50 (NCI-H522) | GI50 (OVCAR-3) | GI50 (OVCAR-4) | GI50 (PC-3) | GI50 (RPMI-8226) | GI50 (SF-295) | GI50 (SF-539) | GI50 (SK-MEL-2) | GI50 (SK-OV-3) | GI50 (SNB-19) | GI50 (SR)
1 | COc1cc(-c2nc3ccccn3c2/N=C/c2cc(Br)cc(Br)c2O)ccc1O | > 100 µM (inactive) | 27.6 µM (inactive) | 79.6 µM (inactive) | 18.4 µM (inactive) | 21.6 µM (inactive) | 24.2 µM (inactive) | 24 µM (inactive) | 24.3 µM (inactive) | 35.1 µM (inactive) | 23.2 µM (inactive) | 15.6 µM (inactive) | 19.4 µM (inactive) | 22.6 µM (inactive) | 24.7 µM (inactive) | 20.7 µM (inactive) | 27.4 µM (inactive) | 22.3 µM (inactive) | 23.9 µM (inactive) | 26.1 µM (inactive) | 25.9 µM (inactive)
2 | CCCS(=O)OC1C(C2COC(C)(C)O2)OC2OC(C)(C)OC21 (stereo not given) | 20.9 µM (inactive) | 20.2 µM (inactive) | 16.5 µM (inactive) | 6.07 µM (inactive) | 13.6 µM (inactive) | 13.1 µM (inactive) | 6.43 µM (inactive) | 7.26 µM (inactive) | 22.8 µM (inactive) | 9.27 µM (inactive) | 15.1 µM (inactive) | 15.2 µM (inactive) | 2.87 µM (inactive) | 2.88 µM (inactive) | 15.1 µM (inactive) | 10.3 µM (inactive) | 16.1 µM (inactive) | 22 µM (inactive) | 15 µM (inactive) | 0.497 µM (active)
3 | CC1OC(O[C@H]2CC[C@]3(C=O)[C@H]4CC[C@]5(C)[C@H](C6=CC(=O)OC6)CC[C@]5(O)[C@@H]4C=C[C@]3(O)C2)CC(O)C1O (stereo not given in full) | 0.113 µM (active) | 0.128 µM (active) | 0.836 µM (active) | 0.0885 µM (active) | 0.188 µM (active) | 0.676 µM (active) | 0.292 µM (active) | 0.143 µM (active) | 0.118 µM (active) | 0.0615 µM (active) | 0.15 µM (active) | 0.349 µM (active) | 0.306 µM (active) | 0.136 µM (active) | 0.13 µM (active) | 0.169 µM (active) | 0.505 µM (active) | 0.502 µM (active) | 0.942 µM (active) | 0.0933 µM (active)
4 | O=C1CC2CCC(C1)[S+]2[O-] (stereo not given) | > 100 µM (inactive) | > 100 µM (inactive) | > 100 µM (inactive) | > 100 µM (inactive) | > 100 µM (inactive) | > 100 µM (inactive) | > 100 µM (inactive) | > 100 µM (inactive) | > 100 µM (inactive) | > 100 µM (inactive) | > 100 µM (inactive) | > 100 µM (inactive) | > 100 µM (inactive) | > 100 µM (inactive) | 61.4 µM (inactive) | > 100 µM (inactive) | > 100 µM (inactive) | > 100 µM (inactive) | > 100 µM (inactive) | > 100 µM (inactive)
5 | COc1ccc(N2C(=O)[C@H]3[C@H]4CC(C(C)(C)C)CC[C@H]4c4c(n(C)c5ccccc45)[C@H]3C2=O)cc1 (stereo not given in full) | > 100 µM (inactive) | > 100 µM (inactive) | 5.62 µM (inactive) | > 100 µM (inactive) | > 5.62 µM (inactive) | > 10 µM (inactive) | > 100 µM (inactive) | > 100 µM (inactive) | > 10 µM (inactive) | > 10 µM (inactive) | > 100 µM (inactive) | > 79.6 µM (inactive) | > 100 µM (inactive) | > 100 µM (inactive) | > 100 µM (inactive) | 32.4 µM (inactive) | > 4.65 µM (inactive) | > 100 µM (inactive) | > 100 µM (inactive) | > 100 µM (inactive)
